Tests used:
[1] = system: Puccinia recondita f. Sp. Tritici; experiment: Fungicidal activity against Puccinia recondita f. sp. tritici / wheat / leaf disc preventative (brown rust); format: in vivo; conditions: foliar, 200 ppm in the applied formulation, wheat leaf segments, preventative, compared to untreated control leaf disks, read-out: disease control
Method in brief: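 Percent disease control relative to untreated check segments is scored once disease develops, 7 to 9 days after application. Wheat cv. Kanzler segments receive compound spray (200 ppm in formulation) one day before spore inoculation, then sit at 19° C. and 75% rh under 12 h light/12 h dark.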

[2] = system: Puccinia recondita f. Sp. Tritici; experiment: Fungicidal activity against Puccinia recondita f. sp. tritici / wheat / leaf disc curative (brown rust); format: in vivo; conditions: foliar, 24 h, 200 ppm in the applied formulation, wheat leaf segments, curative (applied 1 day after inoculation), compared to untreated control leaf disks, read-out: disease control
Method in brief: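 Wheat cv. Kanzler leaf segments on agar, inoculated with rust spore suspension, kept dark at 19° C and 75% RH; formulated compound sprayed 1 day post-inoculation. Incubated 19° C, 75% RH, 12 h light/12 h dark; percent disease control vs untreated scored 6 to 8 days after application.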

[3] = system: Glomerella lagenarium (Colletotrichum lagenarium); experiment: Fungicidal activity against Glomerella lagenarium (Colletotrichum lagenarium) liquid culture / cucumber / preventative (anthracnose); format: cell-based; conditions: Colletotrichum orbiculare; 20 ppm in the applied formulation; liquid culture (PDB), growth inhibition measured photometrically after 3 to 4 days; compared to untreated control; read-out: disease control
Method in brief: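 Percent activity against the untreated check was derived from photometric growth measurements made 2 to 7 days after conidia in potato dextrose broth were combined with compound at 20 ppm. Cultures were kept dark at 24 °C and 96% humidity.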

O=C(C1CC1)N(CCO)Cc1ccc(-c2noc(C(F)(F)F)n2)cc1 [Compound 1.609, N-(2-hydroxyethyl)-N-[[4-[5-(trifluoromethyl)-1,2,4-oxadiazol-3-yl]phenyl]methyl]-cyclopropane-carboxamide]
≥ 80%: pest or weed control at 200 ppm [1] | pest or weed control at 200 ppm [2] | inhibition of growth at 20 ppm [3]

C#CCN(C(=O)N(CC)Cc1ccc(-c2noc(C(F)(F)F)n2)cc1)C1CC1 [Compound 3.99, 1-cyclopropyl-3-ethyl-1-prop-2-ynyl-3-[[4-[5-(trifluoromethyl)-1,2,4-oxadiazol-3-yl]phenyl]methyl]urea]
≥ 80%: pest or weed control at 200 ppm [1] | pest or weed control at 200 ppm [2] | inhibition of growth at 20 ppm [3]

COCCOCC(=O)N(OC)C(C)c1ccc(-c2noc(C(F)(F)F)n2)cc1 (stereo not drawn) [Compound 1.266, N-methoxy-2-(2-methoxyethoxy)-N-[1-[4-[5-(trifluoromethyl)-1,2,4-oxadiazol-3-yl]phenyl]ethyl]-acetamide]
≥ 80%: pest or weed control at 200 ppm [1] | pest or weed control at 200 ppm [2] | inhibition of growth at 20 ppm [3]

C#CCN(Cc1ccc(-c2noc(C(F)(F)F)n2)cc1)C(=O)CCCCC [Compound 1.162, N-prop-2-ynyl-N-[[4-[5-(trifluoromethyl)-1,2,4-oxadiazol-3-yl]phenyl]methyl]-hexanamide]
≥ 80%: pest or weed control at 200 ppm [1] | pest or weed control at 200 ppm [2] | inhibition of growth at 20 ppm [3]

C#CC(=O)N(CCOC)Cc1ccc(-c2noc(C(F)(F)F)n2)cc1 [Compound 1.347, N-(2-methoxyethyl)-N-[[4-[5-(trifluoromethyl)-1,2,4-oxadiazol-3-yl]phenyl]methyl]prop-2-ynamide]
≥ 80%: pest or weed control at 200 ppm [1] | pest or weed control at 200 ppm [2] | inhibition of growth at 20 ppm [3]

CN(Cc1ccc(-c2noc(C(F)(F)F)n2)cc1)C(=O)N(C)C1CCC1 [Compound 3.82, 1-cyclobutyl-1,3-dimethyl-3-[[4-[5-(trifluoromethyl)-1,2,4-oxadiazol-3-yl]phenyl]methyl]urea]
≥ 80%: pest or weed control at 200 ppm [1] | pest or weed control at 200 ppm [2] | inhibition of growth at 20 ppm [3]

CCC(C)N(Cc1ccc(-c2noc(C(F)(F)F)n2)cc1)C(=O)C1(C)CC1 (stereo not drawn) [Compound 1.388, 1-methyl-N-sec-butyl-N-[[4-[5-(trifluoromethyl)-1,2,4-oxadiazol-3-yl]phenyl]methyl]-cyclopropane-carboxamide]
≥ 80%: pest or weed control at 200 ppm [1] | pest or weed control at 200 ppm [2] | inhibition of growth at 20 ppm [3]

COCCN(Cc1ccc(-c2noc(C(F)(F)F)n2)cc1)C(C)=O [Compound 1.364, N-(2-methoxyethyl)-N-[[4-[5-(trifluoromethyl)-1,2,4-oxadiazol-3-yl]phenyl]methyl]-acetamide]
≥ 80%: pest or weed control at 200 ppm [1] | pest or weed control at 200 ppm [2] | inhibition of growth at 20 ppm [3]

COCCC(=O)N(Cc1ccc(-c2noc(C(F)(F)F)n2)cc1)CC1CCCO1 (stereo not drawn) [Compound 1.422, 3-methoxy-N-(tetrahydrofuran-2-ylmethyl)-N-[[4-[5-(trifluoromethyl)-1,2,4-oxadiazol-3-yl]phenyl]methyl]-propanamide]
≥ 80%: pest or weed control at 200 ppm [1] | pest or weed control at 200 ppm [2] | inhibition of growth at 20 ppm [3]

COCCC(=O)N(CCO)Cc1ccc(-c2noc(C(F)(F)F)n2)cc1 [Compound 1.713, N-(2-hydroxyethyl)-3-methoxy-N-[[4-[5-(trifluoromethyl)-1,2,4-oxadiazol-3-yl]phenyl]methyl]-propanamide]
≥ 80%: pest or weed control at 200 ppm [1] | pest or weed control at 200 ppm [2] | inhibition of growth at 20 ppm [3]

CCN(Cc1ccc(-c2noc(C(F)(F)F)n2)cc1)C(=O)CNC(C)=O [Compound 1.501, 2-acetamido-N-ethyl-N-[[4-[5-(trifluoromethyl)-1,2,4-oxadiazol-3-yl]phenyl]methyl]-acetamide]
≥ 80%: pest or weed control at 200 ppm [1] | pest or weed control at 200 ppm [2] | inhibition of growth at 20 ppm [3]

O=C(c1cccc2nnsc12)N(Cc1ccc(-c2noc(C(F)(F)F)n2)cc1)C1CC1 [Compound 1.139, N-cyclopropyl-N-[[4-[5-(trifluoromethyl)-1,2,4-oxadiazol-3-yl]phenyl]methyl]-1,2,3-benzothiadiazole-7-carboxamide]
≥ 80%: pest or weed control at 200 ppm [1] | pest or weed control at 200 ppm [2] | inhibition of growth at 20 ppm [3]

CCCC(C)(C)C(=O)N(Cc1ccc(-c2noc(C(F)(F)F)n2)cc1)OC [Compound 1.10, N-methoxy-2,2-dimethyl-N-[[4-[5-(trifluoromethyl)-1,2,4-oxadiazol-3-yl]phenyl]methyl]-pentanamide]
≥ 80%: pest or weed control at 200 ppm [1] | pest or weed control at 200 ppm [2] | inhibition of growth at 20 ppm [3]

CN(Cc1ccc(-c2noc(C(F)(F)F)n2)cc1)C(=O)CCl [Compound 1.522, 2-chloro-N-methyl-N-[[4-[5-(trifluoromethyl)-1,2,4-oxadiazol-3-yl]phenyl]methyl]-acetamide]
≥ 80%: pest or weed control at 200 ppm [1] | pest or weed control at 200 ppm [2] | inhibition of growth at 20 ppm [3]

C#CCOc1ccc(C(=O)N(Cc2ccc(-c3noc(C(F)(F)F)n3)cc2)C2CC2)cc1F [Compound 1.129, N-cyclopropyl-3-fluoro-4-prop-2-ynoxy-N-[[4-[5-(trifluoromethyl)-1,2,4-oxadiazol-3-yl]phenyl]methyl]-benzamide]
≥ 80%: pest or weed control at 200 ppm [1] | pest or weed control at 200 ppm [2] | inhibition of growth at 20 ppm [3]

CCC(C)N(Cc1ccc(-c2noc(C(F)(F)F)n2)cc1)C(=O)C1CSC1 (stereo not drawn) [Compound 1.378, N-sec-butyl-N-[[4-[5-(trifluoromethyl)-1,2,4-oxadiazol-3-yl]phenyl]methyl]-thietane-3-carboxamide]
≥ 80%: pest or weed control at 200 ppm [1] | pest or weed control at 200 ppm [2] | inhibition of growth at 20 ppm [3]

CC1(C(=O)N(Cc2ccc(-c3noc(C(F)(F)F)n3)cc2)CC2CCCO2)CC1 (stereo not drawn) [Compound 1.431, 1-methyl-N-(tetrahydrofuran-2-ylmethyl)-N-[[4-[5-(trifluoromethyl)-1,2,4-oxadiazol-3-yl]phenyl]methyl]-cyclopropane-carboxamide]
≥ 80%: pest or weed control at 200 ppm [1] | pest or weed control at 200 ppm [2] | inhibition of growth at 20 ppm [3]

COCCOCC(=O)N(Cc1ccc(-c2noc(C(F)(F)F)n2)cc1)CC1CCCO1 (stereo not drawn) [Compound 1.427, 2-(2-methoxyethoxy)-N-(tetrahydrofuran-2-ylmethyl)-N-[[4-[5-(trifluoromethyl)-1,2,4-oxadiazol-3-yl]phenyl]methyl]-acetamide]
≥ 80%: pest or weed control at 200 ppm [1] | pest or weed control at 200 ppm [2] | inhibition of growth at 20 ppm [3]

CCN(Cc1ccc(-c2noc(C(F)(F)F)n2)cc1)C(=O)N1CCCC1 [Compound 3.93, N-ethyl-N-[[4-[5-(trifluoromethyl)-1,2,4-oxadiazol-3-yl]phenyl]methyl]-pyrrolidine-1-carboxamide]
≥ 80%: pest or weed control at 200 ppm [1] | pest or weed control at 200 ppm [2] | inhibition of growth at 20 ppm [3]

CN(Cc1ccc(-c2noc(C(F)(F)F)n2)cc1)C(=O)N1CCCO1 [Compound 3.69, N-methyl-N-[[4-[5-(trifluoromethyl)-1,2,4-oxadiazol-3-yl]phenyl]methyl]-isoxazolidine-2-carboxamide]
≥ 80%: pest or weed control at 200 ppm [1] | pest or weed control at 200 ppm [2] | inhibition of growth at 20 ppm [3]

CC=CC(=O)N(Cc1ccc(-c2noc(C(F)(F)F)n2)cc1)C(C)CC (stereo not drawn) [Compound 1.370, N-sec-butyl-N-[[4-[5-(trifluoromethyl)-1,2,4-oxadiazol-3-yl]phenyl]methyl] but-2-enamide]
≥ 80%: pest or weed control at 200 ppm [1] | pest or weed control at 200 ppm [2] | inhibition of growth at 20 ppm [3]

CCN(Cc1ccc(-c2noc(C(F)(F)F)n2)cc1)C(=O)N(C)C(C)C [Compound 3.98, 1-ethyl-3-isopropyl-3-methyl-1-[[4-[5-(trifluoromethyl)-1,2,4-oxadiazol-3-yl]phenyl]methyl]urea]
≥ 80%: pest or weed control at 200 ppm [1] | pest or weed control at 200 ppm [2] | inhibition of growth at 20 ppm [3]

CCN(Cc1ccc(-c2noc(C(F)(F)F)n2)cc1)C(=O)N(C)C1CC1 [Compound 3.90, 1-cyclopropyl-3-ethyl-1-methyl-3-[[4-[5-(trifluoromethyl)-1,2,4-oxadiazol-3-yl]phenyl]methyl]urea]
≥ 80%: pest or weed control at 200 ppm [1] | pest or weed control at 200 ppm [2] | inhibition of growth at 20 ppm [3]

O=C(C1CCCCO1)N(Cc1ccc(-c2noc(C(F)(F)F)n2)cc1)CC1CCCO1 (stereo not drawn) [Compound 1.411, N-(tetrahydrofuran-2-ylmethyl)-N-[[4-[5-(trifluoromethyl)-1,2,4-oxadiazol-3-yl]phenyl]methyl]-tetrahydropyran-2-carboxamide]
≥ 80%: pest or weed control at 200 ppm [1] | pest or weed control at 200 ppm [2] | inhibition of growth at 20 ppm [3]

O=C(CC(F)(F)F)N(Cc1ccc(-c2noc(C(F)(F)F)n2)cc1)CC1CCCO1 (stereo not drawn) [Compound 1.448, 3,3,3-trifluoro-N-(tetrahydrofuran-2-ylmethyl)-N-[[4-[5-(trifluoromethyl)-1,2,4-oxadiazol-3-yl]phenyl]methyl]-propanamide]
≥ 80%: pest or weed control at 200 ppm [1] | pest or weed control at 200 ppm [2] | inhibition of growth at 20 ppm [3]

Reference: patent US11180462B2, “Microbiocidal oxadiazole derivatives” (SYNGENTA PARTICIPATIONS AG, priority 2015, dated 2021)
